Assay: Water solubility test

Solubility in water: 55 mg/mL
Structure (SMILES): CC1(C)C(/C=C/C2=C(Oc3ccccc3)C(=C/C=C3/N(CCCCS(=O)(=O)O)c4ccccc4C3(C)C)/CCC2)=[N+](CCCNC(=S)NCCC[N+](C)(C)CCCCCCN=C=NCCC[N+]2(C)CCOCC2)c2ccc3ccccc3c21.I [Compound (2)]
